What was measured:
[1] = ABTS free radical scavenging rate; type: biochemical; conditions: 5 min
Description: The ABTS free radical scavenging rate of EPSF-starch was measured as follows: 100 mg of ABTS and 34.4 mg of potassium persulfate were dissolved in 25 mL of distilled water. They were shaken well, and stored at ambient temperature in dark for 12-16 hours.
EPSFs in Example 1 and EGCG in Comparative Example 1 were dispersed uniformly in methanol, obtaining dispersions with mass concentrations of 2 μg/mL, 4 μg/mL, 6 μg/mL, 8 μg/mL, 10 μg/mL and 12 μg/mL. The corn starch and EPSF-starch in Example 1, as well as the EGCG-starch in Comparative Example 1, were uniformly dispersed in methanol obtaining dispersions with mass concentrations of 0.156 mg/mL, 0.313 mg/mL, 0.625 mg/mL, 1.25 mg/mL, and 2.50 mg/mL. 1.0 mL of the above sample solutions and 3.0 mL of the ABTS free radical working solution were added to the test tube in sequence, and they were shaken well, and reacted at ambient temperature in dark for 5 minutes. The absorbance A1 thereof was measured at 734 nm. The sample solutions were replaced with methanol and the absorbance A0 thereof was measured according to the above method. EGCG, starch, and EGCG-starch functioned as control groups, and the ABTS free radical scavenging rates thereof were determined according to the above method. Experiment of each group was repeated three times, and the ABTS free radical scavenging rate of each sample was calculated according to Equation 2.
[formula] • where A0 represents the absorbance of a mixture of the sample dispersion and methanol; and A1 represents the absorbance of the sample dispersion and ABTS radical solution.

[2] = DPPH free radical scavenging rate; type: biochemical; conditions: 30 min
Description: The scavenging rate of EPSF-starch on DPPH free radicals was measured as follows: The N-ethyl-2-pyrrolidinone-substituted flavan-3-ol (EPSF) in Example 1 and EGCG in Comparative Example 1 were uniformly dispersed in methanol separately, obtaining dispersions with mass concentrations of 2 μg/mL, 4 μg/mL, 6 μg/mL, 8 μg/mL, 10 μg/mL and 12 μg/mL. The corn starch and EPSF-starch in Example 1, as well as the EGCG-starch in Comparative Example 1, were uniformly dispersed in methanol to obtain dispersions with mass concentrations of 0.156 mg/mL, 0.313 mg/mL, 0.625 mg/mL, 1.25 mg/mL, and 2.50 mg/mL. 2 mL of the above sample dispersions were pipetted in sequence into test tubes, and 2.0 mL of a DPPH solution (0.2 mmol/L, which was prepared with methanol) was added thereto, respectively. The resulting mixture was shaken well, and reacted at ambient temperature in dark for 30 minutes. The absorbance A1 thereof was then measured at 517 nm. Meanwhile, DPPH solution was replaced with an equal amount of methanol solution, and the absorbance A2 thereof was measured according to the above method. The absorbance A0 of a mixture of 2.0 mL of methanol and 2.0 mL of DPPH solution was measured. Experiments of each group were repeated three times, and the DPPH free radical scavenging rate of EPSF-starch was calculated according to Equation 1.
[formula] • where A0 represents the absorbance of the mixture of methanol and DPPH solution; A1 represents the absorbance of a mixture of the sample dispersion and DPPH free radical solution; and A2 represents the absorbance of a mixture of the sample dispersion and methanol.

epigallocatechin-3-gallate [EGCG]
ABTS free radical scavenging rate ([1]; sample concentration 2 μg/mL in methanol): 51.91 ± 2.1%
ABTS free radical scavenging rate ([1]; sample concentration 4 μg/mL in methanol): 78.8 ± 1.73%
ABTS free radical scavenging rate ([1]; sample concentration 6 μg/mL in methanol): 91.49 ± 1.23%
ABTS free radical scavenging rate ([1]; sample concentration 8 μg/mL in methanol): 94.38 ± 2.07%
ABTS free radical scavenging rate ([1]; sample concentration 10 μg/mL in methanol): 95.17 ± 1.8%
ABTS free radical scavenging rate ([1]; sample concentration 12 μg/mL in methanol): 95.24 ± 1.69%
DPPH free radical scavenging rate ([2]; sample concentration 2 μg/ml in methanol): 21.57 ± 0.04%
DPPH free radical scavenging rate ([2]; sample concentration 4 μg/ml in methanol): 50.98 ± 0.25%
DPPH free radical scavenging rate ([2]; sample concentration 6 μg/ml in methanol): 67.85 ± 4%
DPPH free radical scavenging rate ([2]; sample concentration 8 μg/ml in methanol): 88.44 ± 0.27%
DPPH free radical scavenging rate ([2]; sample concentration 10 μg/ml in methanol): 85.67 ± 2.01%
DPPH free radical scavenging rate ([2]; sample concentration 12 μg/ml in methanol): 87.39 ± 2.62%
DPPH free radical scavenging rate ([2]; sample concentration 2.5 mg/ml in methanol): 90%
